Experimental data as given in patent publication US10752584B2 (EMORY UNIVERSITY, priority 2016, dated 2020).

Legend:
Type in all cases: cell-based
[1] = Cellular toxicity assay in human PBM cells; conditions: human, human PBM cells, read-out: Cytotoxicity
Method in brief: (§1)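 Toxicity assessed in Vero, human PBM, CEM, MT-2 and HepG2 cells, with cycloheximide as positive control and solvent-treated cells as negative control. Cytotoxicity IC50 derived from concentration-response curves by the median effective method.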

human PBM = assay: Cellular toxicity assay in human PBM cells; conditions: read-out: Cytotoxicity
Method in brief: as §1

[2] = Cellular toxicity assay in Vero cells; conditions: African green monkey, read-out: Cytotoxicity
Method in brief: as §1

Vero = assay: Cellular toxicity assay in Vero cells; conditions: read-out: Cytotoxicity
Method in brief: as §1

[3] = Cellular toxicity assay in HepG2 cells; conditions: human, read-out: Cytotoxicity
Method in brief: as §1

wild type HBV = assay: Anti-HBV assay in AD-38 cell line; conditions: Hepatitis B virus; AD-38 cells, HBV in culture supernatant; read-out: Anti-HBV activity EC50
HBV e antigen (HBeAg) = assay: HBeAg ELISA in HepAD38 cells (cccDNA-dependent marker)
Protocol: Production of secreted HBeAg is predominantly cccDNA-dependent in HepAD38 cells and therefore can serve as a surrogate marker for cccDNA (Ladner, S. K., Otto, M. J., Barker, C. S., Zaifert, K., Wang, G. H., Guo, J. T., Seeger, C., King, R. W. Antimicrob Agents Chemother 1997, 41, 1715-1720; Zhou T, Guo H, Guo J T, Cuconati A, Mehta A, Block T M. Antiviral Res. 2006; 72 (2): 116-24.). The effect on the levels of cccDNA formation was assessed using a cell-based assay that measures HBV e antigen (HBeAg) as a cccDNA-dependent marker in the HepAD38 system. HepAD38 cells were seeded at 50,000 cells/well in collagen-coated 96-well plates with DMEM/F12 medium (Life Technologies) supplemented with 10% heat-inactivated fetal bovine serum. Cells were treated with 0.3 μg/ml tetracycline as needed. Test compounds and controls were added to cells to a final concentration of 10 μM or in a dose response manner ranging from 0.001 to 10 μM. Medium and test compounds were replenished every 5 days in culture. Supernatants were harvested at day-14, clarified by centrifugation at 5000 rpm for 5 min, and stored at −70° C. until use. ELISA—Culture medium was diluted 1:15 in DMEM/F12 and the levels of HBeAg secreted in the culture medium were measured by using HBeAg ELISA kit (BioChain Institute Inc. Hayward, Calif.) according to the manufacturer's protocol. The concentration of compound that reduced levels of secreted HBeAg by 50% (EC50) was determined by linear regression.

Structure (SMILES): O=C(Nc1ccc(F)c(F)c1)c1cc(S(=O)(=O)NCc2cn(C3CC3)nn2)ccc1F [Compound 13, 5-(N-((1-Cyclopropyl-1H-1,2,3-triazol-4-yl)methyl)sulfamoyl)-N-(3,4-difluorophenyl)-2-fluorobenzamide]
- CC50 [1]: > 100 µM
- CC50 (human PBM): 64.8 µM
- CC50 [2]: 55.6 µM
- CC50 (Vero): 66 µM
- CC50 [3]: > 100 µM
- EC50 (wild type HBV): 0.1 to 0.9 µM
- Anti-HBeAg activity, percentage in brackets under EC50 (HBV e antigen (HBeAg); HepAD38 cells, day 14, concentration not printed in the table (method: 10 μM)): (86%)
- EC50 (HBV e antigen (HBeAg); Hepatitis B virus, HePAD38, 336 h, read-out: Anti-HBeAg activity EC50): < 10 µM
